The source of these data is paper PMC7703574 (Journal of medicinal chemistry, 2020).

The structures appear in SMILES notation. Where only a bound is given, the exact number is not on record here.

Data set [1] in a line: Cytotoxicity in TZM-bl cells. The format is cell-based. The note with it: human.
Data set [2] deals with HIV-1 Env pseudoviruses. The note with it: despite low nanomolar potency; cited from earlier work.
Data set [3] concerns VSV-G pseudovirus. It counts as cell-based. The following applies: control for HIV-1 specificity.
Data set [4] relates to U87-CD4-CXCR4 cells. Kind of data set: Cytotoxicity in U87-CD4-CXCR4 cells. The format is cell-based. The note with it: at the doses used for this assay.
Data set [5] has as its system Cf2Th-CCR5 cells. Kind of data set: Cytotoxicity in Cf2Th-CCR5 cells. It counts as cell-based.
For data set [6] the following is noted: phosphate buffer, pH7.4; cited from earlier work.
The subject of data set [7] is Caco-2 cell monolayer. The note with it: no inhibitor; cited from earlier work.
For data set [8], the system named is CYP3A. Kind of data set: Cytochrome P450 inhibition CYP3A. The format is in vitro ADME. The note with it: human.
The test system of data set [9] is CYP450 enzymes. Kind of data set: Cytochrome P450 inhibition, set of CYP450 enzymes. It counts as in vitro ADME.
The nature of data set [10]: Metabolic stability in human liver microsomes. The format is in vitro ADME. A general note: Liver microsomes are vesicles of endoplasmic reticulum, rich in cytochrome P450 enzymes.

With `NC[C@@H](NC(=O)c1ccc(-c2ccc(C(F)(F)F)nc2)[nH]1)c1nc(CO)cs1` [Compound 41, N-(2-Amino-1-(4-(hydroxymethyl)thiazol-2-yl)ethyl)-5-(6-(trifluoromethyl)pyridin-3-yl)-1H-pyrrole-2-carboxamide], the cytotoxic concentration (CC50) (as a rule, the concentration that lowers cell viability or growth by half) at 3 d in data set [1] is greater than 122 µM.

`NC[C@H](NC(=O)c1ccc(-c2ccc(C(F)(F)F)cn2)[nH]1)c1ncc(CO)s1` [Compound 6, N-(2-Amino-1-(5-(hydroxymethyl)thiazol-2-yl)ethyl)-5-(5-(trifluoromethyl)pyridin-2-yl)-1H-pyrrole-2-carboxamide]: the CC50 at 3 d in data set [1] was greater than 122 µM. `NC[C@@H](NC(=O)c1ccc(-c2ccc(C(F)(F)F)cn2)[nH]1)c1ncc(C(O)CO)s1` (stereo partly shown) [Compound 13, N-(2-Amino-1-(5-(1,2-dihydroxyethyl)thiazol-2-yl)ethyl)-5-(5-(trifluoromethyl)pyridin-2-yl)-1H-pyrrole-2-carboxamide] gave a CC50 at 3 d in [1] greater than 113 µM. On to `NC[C@@H](NC(=O)c1ccc(-c2ccc(Cl)nc2)[nH]1)c1nc(CO)cs1` [Compound 39, N-(2-Amino-1-(4-(hydroxymethyl)thiazol-2-yl)ethyl)-5-(6-chloropyridin-3-yl)-1H-pyrrole-2-carboxamide], for which the CC50 at 3 d in data set [1] is greater than 132 µM.

Turning to `COc1ccnc2[nH]cc(C(=O)C(=O)N3CCN(C(=O)c4ccccc4)C[C@H]3C)c12` [BMS-378806, 4-benzoyl-1-[(4-methoxy-1H-pyrrolo-[2,3-b]pyridin-3-yl)oxoacetyl]-2-(R)-methylpiperazine], in [2], the “activity against A, C, and D subtypes” value was “weaker activity”. In data set [1], `Cc1ccc(-c2ccc(C(=O)N[C@H](CN)c3nc(CO)cs3)[nH]2)nc1` [Compound 19, N-(2-Amino-1-(4-(hydroxymethyl)thiazol-2-yl)ethyl)-5-(5-methylpyridin-2-yl)-1H-pyrrole-2-carboxamide] had a CC50 at 3 d greater than 140 µM. Still for that read-out and setting: in the case of `NC[C@H](NC(=O)c1ccc(-c2ccc(Cl)cn2)[nH]1)c1nc(CO)cs1` [Compound 16, N-(2-Amino-1-(4-(hydroxymethyl)thiazol-2-yl)ethyl)-5-(5-chloropyridin-2-yl)-1H-pyrrole-2-carboxamide] it was greater than 132 µM. Same read-out and setting: with `NC[C@H](NC(=O)c1ccc(-c2ccc(C(F)(F)F)cn2)[nH]1)c1nc(CO)c(CO)s1` [Compound 36, N-(2-Amino-1-(4,5-bis(hydroxymethyl)thiazol-2-yl)ethyl)-5-(5-(trifluoromethyl)pyridin-2-yl)-1H-pyrrole-2-carboxamide] the figure was greater than 113 µM; with `NC[C@@H](NC(=O)c1ccc(-c2ncc(Cl)cn2)[nH]1)c1nc(CO)cs1` [Compound 45, N-(2-Amino-1-(4-(hydroxymethyl)thiazol-2-yl)ethyl)-5-(5-chloropyrimidin-2-yl)-1H-pyrrole-2-carboxamide], greater than 66 µM.

On to `NC[C@H](NC(=O)c1ccc(-c2ccc(C(F)(F)F)nn2)[nH]1)c1nc(CO)cs1` [Compound 44, N-(2-Amino-1-(4-(hydroxymethyl)thiazol-2-yl)ethyl)-5-(6-(trifluoromethyl)pyridazin-3-yl)-1H-pyrrole-2-carboxamide], for which, in data set [1], the cytotoxic concentration (CC50) at 3 d was greater than 73 µM. Take `COc1cc(-c2ccc(C(=O)N[C@H](CN)c3nc(CO)cs3)[nH]2)ccn1` [Compound 47, N-(2-Amino-1-(4-(hydroxymethyl)thiazol-2-yl)ethyl)-5-(2-methoxypyridin-4-yl)-1H-pyrrole-2-carboxamide]: the CC50 at 3 d in data set [1] is greater than 133 µM. Regarding `Cc1cc(-c2ccc(C(F)(F)F)cn2)[nH]c1C(=O)N[C@H](CN)c1nc(CO)cs1` [Compound 33, N-(2-Amino-1-(4-(hydroxymethyl)thiazol-2-yl)ethyl)-3-methyl-5-(5-(trifluoromethyl)pyridin-2-yl)-1H-pyrrole-2-carboxamide], the “activity against the pseudovirus VSV-G” value in [3] is “poorly active”. Further, the midpoint of cytotoxicity in data set [1], the CC50 at 72 h, lay at 85 ± 3 µM. The “toxicity in the U87-CD4-CXCR4 cell line” value in data set [4] was “did not induce toxicity”. The “toxicity at the doses used in this assay” value in [5] is given as “did not show toxicity”. `NC[C@@H](NC(=O)c1ccc(-c2ccc(F)cn2)[nH]1)c1nc(CO)cs1` [Compound 17, N-(2-Amino-1-(4-(hydroxymethyl)thiazol-2-yl)ethyl)-5-(5-fluoropyridin-2-yl)-1H-pyrrole-2-carboxamide] showed a CC50 at 3 d in data set [1] greater than 138 µM. Same read-out and setting: with `NC[C@@H](NC(=O)c1ccc(-c2ccc(C(F)(F)F)cn2)[nH]1)c1nc(C(O)CO)cs1` (stereo partly shown) [Compound 29, N-(2-Amino-1-(4-(1,2-dihydroxyethyl)thiazol-2-yl)ethyl)-5-(5-(trifluoromethyl)pyridin-2-yl)-1H-pyrrole-2-carboxamide] the figure was greater than 113 µM. For the compound `COc1cnc(-n2cnc(C)n2)c2[nH]cc(C(=O)C(=O)N3CCN(C(=O)c4ccccc4)CC3)c12` [BMS-626529], the solubility (usually the dissolved amount per volume that the medium holds) in data set [6] is 47 to 237 µg/mL. Moreover, in data set [7], the “Caco-2 permeability mean Papp A-to-B” value was 9.27 ×10⁻⁶ cm/s and the “Caco-2 permeability mean Papp B-to-A” value is 32 ×10⁻⁶ cm/s. `Cc1cc(-c2ccc(C(F)(F)F)cn2)[nH]c1C(=O)N[C@@H](CN)c1ncc(CO)s1` [Compound 8, N-(2-Amino-1-(5-(hydroxymethyl)thiazol-2-yl)ethyl)-3-methyl-5-(5-(trifluoromethyl)pyridin-2-yl)-1H-pyrrole-2-carboxamide]: the “activity against the pseudovirus VSV-G” value in data set [3] is given as “poorly active”. The IC50 – broadly, the concentration at which inhibition is half-maximal – is greater than 100 µM in [8] (probe midazolam) and greater than 62.2 µM in data set [8] (probe testosterone). In addition, the “inhibition of CYP1A2, CYP2B6, and CYP3A” value in [9] (at greater than 50 μM dose levels) was “no inhibition”. The “inhibition of the other CYP450 enzymes” value in data set [9] (at the 100 μM dose level) is “No inhibitory activities”. Further, in data set [10], the microsomal CLint – broadly, a measure of how fast metabolising enzymes remove a compound, apart from limits set by blood flow – is less than 11.6 µL/min/mg. Moreover, the “toxicity in the U87-CD4-CXCR4 cell line” value in [4] is listed as “did not induce toxicity”. For the same compound, the “toxicity at the doses used in this assay” value in [5] is given as “did not show toxicity”.
